{"source": "patent US20160022675A1", "about": "“PROCESSES FOR PREPARING TETRAHYDROISOQUINOLINES” (BRISTOL-MYERS SQUIBB COMPANY, priority 2013, published 2016)", "key": {"[1]": {"assay": "Solubility profile (USP definition) in solvents", "type": "physicochemical"}, "SERT": {"target": "SERT (Homo sapiens, UniProt P31645)", "sequence (P31645 whole entry)": "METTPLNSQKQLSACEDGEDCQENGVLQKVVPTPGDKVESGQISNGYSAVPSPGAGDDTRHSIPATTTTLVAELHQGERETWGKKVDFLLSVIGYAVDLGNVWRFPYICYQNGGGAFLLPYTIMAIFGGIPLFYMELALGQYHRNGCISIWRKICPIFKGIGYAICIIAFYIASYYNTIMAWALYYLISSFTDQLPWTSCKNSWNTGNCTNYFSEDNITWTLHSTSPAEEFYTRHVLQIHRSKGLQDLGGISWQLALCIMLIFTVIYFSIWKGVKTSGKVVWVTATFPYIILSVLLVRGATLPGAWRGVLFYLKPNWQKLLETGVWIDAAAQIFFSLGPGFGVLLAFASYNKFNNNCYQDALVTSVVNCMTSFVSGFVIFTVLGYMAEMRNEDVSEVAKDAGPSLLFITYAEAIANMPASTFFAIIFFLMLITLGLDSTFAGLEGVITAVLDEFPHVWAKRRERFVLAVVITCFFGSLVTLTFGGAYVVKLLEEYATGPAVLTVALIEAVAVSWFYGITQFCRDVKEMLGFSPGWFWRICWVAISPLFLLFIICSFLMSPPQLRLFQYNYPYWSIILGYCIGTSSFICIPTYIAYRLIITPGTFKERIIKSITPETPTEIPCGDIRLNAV", "assay": "Competition binding, membranes from HEK cells overexpressing SERT", "parameters": "expressed in transfected cells; host or cells: HEK cells (membranes)", "experimental": "(§1) Competition binding experiments were performed to determine the in vitro binding potencies (IC50 values) of Compound 1-(4S) for SERT, DAT, and NET. Membranes prepared from human embryonic kidney (HEK) cells overexpressing each transporter were employed. Radioligands were used at their respective affinity constant (Kd) concentrations for each transporter to enable direct comparisons of the IC50 values between assays."}, "NET [2]": {"target": "T1, NET (Homo sapiens, UniProt P23975)", "T1 sequence (P23975 whole entry)": "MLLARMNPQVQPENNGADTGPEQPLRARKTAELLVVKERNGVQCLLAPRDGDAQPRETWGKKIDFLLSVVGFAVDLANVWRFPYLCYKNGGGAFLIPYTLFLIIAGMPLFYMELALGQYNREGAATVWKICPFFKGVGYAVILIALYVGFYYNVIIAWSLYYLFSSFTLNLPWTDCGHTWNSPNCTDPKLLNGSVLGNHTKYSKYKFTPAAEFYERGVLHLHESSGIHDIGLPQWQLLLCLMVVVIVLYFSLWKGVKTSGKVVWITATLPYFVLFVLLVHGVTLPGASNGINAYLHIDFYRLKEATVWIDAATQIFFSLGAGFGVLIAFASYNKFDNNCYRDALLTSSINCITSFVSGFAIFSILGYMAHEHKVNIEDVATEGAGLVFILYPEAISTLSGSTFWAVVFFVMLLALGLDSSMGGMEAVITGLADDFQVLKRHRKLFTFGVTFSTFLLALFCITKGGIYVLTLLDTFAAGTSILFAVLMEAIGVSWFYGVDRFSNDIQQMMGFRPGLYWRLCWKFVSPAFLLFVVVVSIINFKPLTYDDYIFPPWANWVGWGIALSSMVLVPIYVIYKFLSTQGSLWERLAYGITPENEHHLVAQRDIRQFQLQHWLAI", "assay": "Competition binding, membranes from HEK cells overexpressing NET", "parameters": "expressed in transfected cells; host or cells: HEK cells (membranes)", "conditions": "radioligand at Kd concentration; HEK cell membranes", "experimental": "as §1"}, "stereotypy": {"tested_on": "stereotypy", "assay": "Stereotypy, mouse", "type": "in vivo", "description": "(§2) To better understand the margin between doses of Compound 1-(4S) that are effective in the mouse tail suspension models and those that lead to monoamine-related side effects, locomotor activity was examined to assess psychostimulant properties and stereotypy was examined to assess more severe DA-related side effects. Increased body temperature, another effect that has been attributed to DA pharmacology, was also studied. In the mouse, Compound 1-(4S) increased locomotor activity and stereotypy scores at doses of 3.0 mg/kg and 10 mg/kg, respectively. Thus, the margin between the Compound 1-(4S) effective dose in the mouse tail suspension and increased locomotor activity was 10-fold and the margin versus activity in stereotypy was 30-fold. The thermogenic effect of Compound 1-(4S) was studied in mice and rats by measuring changes in rectal temperature following administration of the compound. […] The onset of the thermogenesis was earlier as the dose was increased. The levels of SERT and NET occupancy were over 80% and appeared saturated across the doses tested. The DAT occupancy was dose-dependent, with 55±5.7% at 1.0 mg/kg, 74±6% at 3.0 mg/kg, and 83±0.8% at 10 mg/kg. […] The onset of the temperature increase was earlier at the highest dose of 10 mg/kg. […] The DAT occupancy was 37±8.3%, 55±5.2%, and 71±1.7% at 1.0, 3.0, and 10 mg/kg, respectively. […]"}, "DAT [3]": {"target": "DAT (Homo sapiens, UniProt Q01959)", "sequence (Q01959 whole entry)": "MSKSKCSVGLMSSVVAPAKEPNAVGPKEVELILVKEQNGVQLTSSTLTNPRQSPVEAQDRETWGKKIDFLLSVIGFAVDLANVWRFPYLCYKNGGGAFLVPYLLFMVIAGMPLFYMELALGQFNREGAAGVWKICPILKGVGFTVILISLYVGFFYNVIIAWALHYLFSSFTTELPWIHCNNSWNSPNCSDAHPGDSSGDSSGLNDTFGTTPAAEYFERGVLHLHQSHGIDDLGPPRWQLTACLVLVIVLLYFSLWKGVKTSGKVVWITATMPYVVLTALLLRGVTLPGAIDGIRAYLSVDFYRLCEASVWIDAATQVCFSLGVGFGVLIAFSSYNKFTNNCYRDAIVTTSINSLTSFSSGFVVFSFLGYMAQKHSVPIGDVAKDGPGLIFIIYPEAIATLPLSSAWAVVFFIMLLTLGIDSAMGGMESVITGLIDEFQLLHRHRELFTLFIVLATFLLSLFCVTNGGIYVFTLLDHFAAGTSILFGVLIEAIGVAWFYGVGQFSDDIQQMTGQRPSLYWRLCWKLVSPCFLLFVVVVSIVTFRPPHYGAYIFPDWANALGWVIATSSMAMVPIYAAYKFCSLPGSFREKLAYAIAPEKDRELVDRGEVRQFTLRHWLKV", "assay": "Competition binding, membranes from HEK cells overexpressing DAT", "parameters": "expressed in transfected cells; host or cells: HEK cells (membranes)", "conditions": "radioligand at Kd concentration; HEK cell membranes", "experimental": "as §1"}, "locomotor activity": {"tested_on": "locomotor activity", "assay": "Locomotor activity, mouse", "type": "in vivo", "description": "as §2"}, "DAT [4]": {"target": "DAT (Canis lupus familiaris, UniProt B6EUL3)", "sequence (B6EUL3 1-617)": "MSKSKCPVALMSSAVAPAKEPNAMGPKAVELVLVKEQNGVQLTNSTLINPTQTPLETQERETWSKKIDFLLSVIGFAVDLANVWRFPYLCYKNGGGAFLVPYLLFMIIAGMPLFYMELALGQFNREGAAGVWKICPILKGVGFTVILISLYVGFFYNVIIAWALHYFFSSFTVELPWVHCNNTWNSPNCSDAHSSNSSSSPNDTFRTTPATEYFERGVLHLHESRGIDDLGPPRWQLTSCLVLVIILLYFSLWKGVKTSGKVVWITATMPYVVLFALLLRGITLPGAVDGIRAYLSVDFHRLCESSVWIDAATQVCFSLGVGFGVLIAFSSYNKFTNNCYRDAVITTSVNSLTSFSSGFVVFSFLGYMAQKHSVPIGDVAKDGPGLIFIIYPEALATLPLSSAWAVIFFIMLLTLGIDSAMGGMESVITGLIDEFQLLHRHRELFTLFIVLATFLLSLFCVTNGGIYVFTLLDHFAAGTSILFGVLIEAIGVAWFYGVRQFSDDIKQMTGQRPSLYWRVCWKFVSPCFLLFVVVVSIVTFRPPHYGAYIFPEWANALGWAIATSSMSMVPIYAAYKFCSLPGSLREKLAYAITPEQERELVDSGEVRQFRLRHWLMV", "assay": "DAT occupancy, dog", "type": "in vivo", "conditions": "single binding site model, read-out: total plasma concentration producing 50% effect (EC50), DAT occupancy", "experimental": "The effects of Compound 1-(4S) in the mouse tail suspension model of depression and target site occupancy were assessed to compare occupancies associated with the behavioral response. The mouse tail suspension model is known the art. […] The lowest effective dose of Compound 1-(4S), 0.3 mg/kg, PO, decreased immobility by 77% relative to vehicle-treated controls. […] Administration of Compound 1-(4S) led to dose-dependent occupancy of SERT, NET, and DAT binding sites in the brain. At the lowest behaviorally-effective dose (0.3 mg/kg), occupancies were 86±1% of SERT, 76±3% of NET, and 28±3% of DAT. At 1 mg/kg, occupancies were 89±1%, 82±1% and 54±3% at SERT, NET, and DAT, respectively. Pharmacokinetics and pharmacodynamics (PD) in mouse, rat, and dog focused primarily on DAT occupancy since SERT and NET occupancies were saturated by drug for most, if not all, of the times studied. DAT occupancy increased as a function of increasing plasma exposure. The DAT occupancy to total plasma level could be fitted using a single binding site model and plasma level ED50 (the dose producing 50% effect) values could be calculated."}, "NET [5]": {"target": "T1, NET", "assay": "[3H]NE uptake into HEK293/hNET cells", "type": "cell-based", "parameters": "expressed in transfected cells; host or cells: HEK293", "conditions": "read-out: Norepinephrine reuptake IC50 ([3H]NE uptake)", "description": "Cell-based assays were used to determine the ability of Compound 1-(4S) to inhibit reuptake of 3H-labeled DA ([3H]DA), NE ([3H]NE), and 5-HT ([3H]5-HT)."}}}
{"smiles": "CN1Cc2cc(-c3ccc(N)nn3)ccc2[C@H](c2ccc3ccccc3c2)C1", "note": "[Compound 1-(4S), 6-[(4S)-1,2,3,4-tetrahydro-2-methyl-4-(2-naphthalenyl)-7-isoquinolinyl]-3-pyridazinamine]", "values": [{"measurement": "Solubility profile (USP definition)", "setting": "[1]; N,N-dimethylacetamide, dimethylsulfoxide", "value": "soluble: N,N-dimethylacetamide, dimethylsulfoxide"}, {"measurement": "Solubility profile (USP definition)", "setting": "[1]; PEG 400", "value": "sparingly soluble: PEG 400"}, {"measurement": "Solubility profile (USP definition)", "setting": "[1]; acetonitrile, ethyl acetate, n-butanol", "value": "very slightly soluble: acetonitrile, ethyl acetate,"}, {"measurement": "Solubility profile (USP definition)", "setting": "[1]; isopropanol, acetone, ethanol, methanol, propylene glycol, dichloromethane", "value": "slightly soluble: isopropanol, acetone, ethanol,"}, {"measurement": "Solubility profile (USP definition)", "setting": "[1]; n-heptane", "value": "practically insoluble: n-heptane"}, {"measurement": "Solubility profile (USP definition)", "setting": "[1]; tetrahydrofuran", "value": "freely soluble: tetrahydrofuran"}, {"measurement": "IC50", "setting": "SERT", "value": "1.08 ± 0.09", "unit": "nM"}, {"measurement": "IC50", "setting": "NET [2]", "value": "7.99 ± 0.43", "unit": "nM"}, {"measurement": "dose that increased stereotypy scores", "setting": "stereotypy", "value": 10, "unit": "mg/kg"}, {"measurement": "margin between effective dose in mouse tail suspension and activity in stereotypy", "setting": "stereotypy", "value": 30, "unit": "fold"}, {"measurement": "IC50", "setting": "DAT [3]", "value": "5.67 ± 0.36", "unit": "nM"}, {"measurement": "dose that increased locomotor activity", "setting": "locomotor activity", "value": 3.0, "unit": "mg/kg"}, {"measurement": "margin between effective dose in mouse tail suspension and increased locomotor activity", "setting": "locomotor activity", "value": 10, "unit": "fold"}, {"measurement": "EC50", "setting": "DAT [4]", "value": 103, "unit": "nM"}, {"measurement": "IC50", "setting": "NET [5]", "value": "37.5 ± 2.5", "unit": "nM"}]}
